{
  "source": "patent EP2785358B1",
  "about": "“INSULIN-MIMETICS AS THERAPEUTIC ADJUNCTS FOR BONE REGENERATION” (priority 2011, dated 2013)",
  "key": {"[1]": {"system": "femur fractures", "assay": "Early immunohistochemistry (BrdU cell proliferation), local VAC", "format": "in vivo, BB Wistar rats", "protocol": "At days 2, 4, and 7, and 10, animals were injected intraperitoneally with 30 mg/kg of 5-bromo-2'deoxyuridine (BrdU, Sigma Chemical Co., St. Louis, MO) one hour prior to sacrifice to label replicating cells as a measure of cellular proliferation. The fractured femurs were resected and fixed in formalin, decalcified (Immunocal, Decal Corp., Tallman, NY), embedded in paraffin, and sectioned longitudinally (5 µm thick). Cells positive for BrdU incorporation were detected by immunohistochemistry using commercially available reagents (DAKO Corp., Carpentaria, California). Digital images of each fracture were collected with an Olympus BH2-RFCA microscope equipped with a Nikon DXM1200f camera. For each specimen, callus area was measured and the BrdU positive cells in the periosteal callus region were counted using Image Pro Plus software. All BrdU positive cells in the external callus to a maximum of 1 cm proximal and distal of the fracture site and 3 mm from the external surface of the femur were counted. The number of BrdU positive cells was normalized per unit area of callus and only one datum per rat (BrdU positive cells per mm2) was used for the statistical analysis."}, "[2]": {"system": "femur fractures", "assay": "Histomorphometry, local VAC without a carrier", "format": "in vivo, BB Wistar rats", "conditions": "for % Cartilage / % Mineralized Tissue / Callus Area: no carrier", "text": "Two independent reviewers were used to minimize inconsistencies."}, "[3]": {"system": "femur fractures", "assay": "Long-term radiographic analysis at twelve weeks, local VAC", "format": "in vivo, normal (non-diabetic) rats", "conditions": "for ectopic bone formation on radiographs: twelve weeks post-fracture", "protocol": "The effect of local vanadium therapy on healing of femur fractures in normal (non-diabetic) rats was measured by radiographic analysis."}, "[4]": {"assay": "Vanadium quantification in femur by atomic absorption spectrophotometry", "format": "in vivo, BB Wistar rats", "conditions": "0.1 mL of 4.35 mg/mL VAC solution (approximately 1.5 mg VAC/kg) into femoral canal", "protocol": "BB Wistar rats were anesthetized and confirmed to be non-responsive to external stimuli before beginning the surgical procedure. The anesthetized rat was be exsanguinated by cardiac puncture using a 10 ml syringe with a 22 gauge needle after shallow puncture just lateral to the sternum and through the intercostal space. After puncturing the dermis and cardiac wall slight backpressure was placed on the plunger to withdraw blood from the ventricle. The collected blood was transferred to an appropriate container used for collection of plasma (heparinized) or serum (non-heparinized). Following the cardiac puncture, the rats were euthanized via cervical dislocation.\nThe excised femora were be stripped of adhering muscle, tendon and other tissue after which the bones were rinsed three times with deionized water, and then placed on glassine paper and air dried. The pin was rinsed once and stored in a clean conical tube. The liver, kidneys, brain, and left humerous collected were rinsed 3x and air dried. The objective of \"drying\" was to remove adhering water droplets after the water rinse and to allow the true tissue weight to be recorded as precisely as possible. […] The organs were then placed into a low temperature (-80 degrees Celsius) freezer for storage until future analysis (quantification not currently planned). […]"}, "[5]": {"system": "femur fractures", "assay": "Torsional mechanical testing, local VAC without a carrier in normal rats", "format": "in vivo, non-diabetic BB Wistar rats", "parameters": "Percent Effective Shear Modulus / Percent Effective Shear Stress: scale not given: direction of the effect not stated beside the values", "protocol": "A closed mid-diaphyseal fracture surgery was performed on the right femur of each rat as described previously. […] A closed, midshaft fracture was then created using a three-point bending fracture instrument (BBC Specialty Automotive, Linden NJ) and confirmed with X-rays immediately post-fracture."}, "[6]": {"conditions": "VAC 1.5 mg/kg local, 10 Days Post-Fracture"}, "[7]": {"conditions": "VAC 1.5 mg/kg local, 14 Days Post-Fracture"}, "[8]": {"conditions": "VAC 1.5 mg/kg local, 21 Days Post-Fracture"}, "[9]": {"conditions": "VAC 3.0 mg/kg local, 10 Days Post-Fracture"}, "[10]": {"conditions": "VAC 3.0 mg/kg local, 14 Days Post-Fracture"}, "[11]": {"conditions": "VAC 3.0 mg/kg local, 21 Days Post-Fracture"}, "[12]": {"conditions": "VAC 0.5 mg/kg local, no carrier, normal rats, 4 weeks"}, "[13]": {"conditions": "VAC 0.5 mg/kg local, no carrier, normal rats, 4 weeks, normalized to intact femur"}, "[14]": {"conditions": "VAC 1.5 mg/kg Autoclaved, no carrier, four weeks"}, "[15]": {"conditions": "VAC 1.5 mg/kg Gamma Irradiated, no carrier, four weeks"}, "[16]": {"conditions": "VAC 1.5 mg/kg local, no carrier, normal rats, 5 weeks"}, "[17]": {"conditions": "VAC 1.5 mg/kg local, rats of advanced age (190-195 days), four weeks"}, "[18]": {"conditions": "VAC 1.5 mg/kg without sterilization, no carrier, four weeks"}, "[19]": {"conditions": "VAC 1.5 mg/kg without sterilization, no carrier, four weeks, normalized to intact femur"}, "[20]": {"conditions": "VAC 3.0 mg/kg local, no carrier, normal rats, 4 weeks"}, "[21]": {"conditions": "VAC 3.0 mg/kg local, no carrier, normal rats, 4 weeks, normalized to intact femur"}},
  "note": "Where “and” joins values, the source holds several entries; their conditions need not be identical. Equal entries are not always repeated. Marks after values point to notes of the source that are not given here.",
  "data": [
    {"smiles": "CC(=O)/C=C(/C)[O-].CC(=O)/C=C(/C)[O-].[O]=[V+2]", "note": "[VAC, Vanadyl acetylacetonate]", "values": [
      {"measurement": "cell proliferation (BrdU positive cells) in the periosteum versus control", "setting": "[1]; seven and ten days post-fracture, p < 0.05", "value": "significantly more proliferating cells per unit area"},
      {"measurement": "cell proliferation (BrdU positive cells) versus control", "setting": "[1]; two or four days post-fracture", "value": "no significant differences"},
      {"measurement": "% Cartilage", "setting": "[2]; [6]", "value": "30.6 ± 12.4^∗ (n=7) %"},
      {"measurement": "% Mineralized Tissue", "setting": "[2]; [6]", "value": "15.8 ± 5.1 (n=7) %"},
      {"measurement": "Callus Area", "setting": "[2]; [6]", "value": "18.4 ± 3.6 (n=7) mm^2"},
      {"measurement": "% Cartilage", "setting": "[2]; [7]", "value": "14.2 ± 4.9 (n=5) %"},
      {"measurement": "% Mineralized Tissue", "setting": "[2]; [7]", "value": "21.3 ± 2.1^∗ (n=5) %"},
      {"measurement": "Callus Area", "setting": "[2]; [7]", "value": "21.7 ± 5.0 (n=5) mm^2"},
      {"measurement": "% Cartilage", "setting": "[2]; [8]", "value": "11.0± 4.7 (n=5) %"},
      {"measurement": "% Mineralized Tissue", "setting": "[2]; [8]", "value": "32.7 ± 2.9^∗ (n=5) %"},
      {"measurement": "Callus Area", "setting": "[2]; [8]", "value": "20.1 ± 4.5 (n=5) mm^2"},
      {"measurement": "percent cartilage compared to controls", "setting": "[2]; VAC 1.5 mg/kg, 7 days (and 10 days), p < 0.05", "value": "statistically higher"},
      {"measurement": "% Cartilage", "setting": "[2]; [9]", "value": "17.8± 5.5 (n=5) %"},
      {"measurement": "% Mineralized Tissue", "setting": "[2]; [9]", "value": "15.2 ± 3.4 (n=5) %"},
      {"measurement": "Callus Area", "setting": "[2]; [9]", "value": "18.6 ± 2.9 (n=5) mm^2"},
      {"measurement": "% Cartilage", "setting": "[2]; [10]", "value": "13.0 ± 6.4 (n=5) %"},
      {"measurement": "% Mineralized Tissue", "setting": "[2]; [10]", "value": "21.9 ± 3.2^∗ (n=5) %"},
      {"measurement": "Callus Area", "setting": "[2]; [10]", "value": "19.3 ± 3.1 (n=5) mm^2"},
      {"measurement": "% Cartilage", "setting": "[2]; [11]", "value": "9.4± 5.7 (n=4) %"},
      {"measurement": "% Mineralized Tissue", "setting": "[2]; [11]", "value": "33.4 ± 5.2 (n=4) %"},
      {"measurement": "Callus Area", "setting": "[2]; [11]", "value": "20.3± 5.1 (n=4) mm^2"},
      {"measurement": "ectopic bone formation on radiographs", "setting": "[3]; VAC high (3.0 mg/kg)", "value": "no evidence of ectopic bone formation"},
      {"measurement": "ectopic bone formation on radiographs", "setting": "[3]; VAC low (1.5 mg/kg)", "value": "no evidence of ectopic bone formation"},
      {"measurement": "toxic/carcinogenic effect (remodeling of femora)", "setting": "[3]; local VAC, throughout fracture healing, normal remodeling", "value": "no evidence of a toxic/carcinogenic effect"},
      {"measurement": "time locally injected VAC remains bound within the fractured femora", "setting": "[4]", "value": "approximately two weeks"},
      {"measurement": "Percent maximum torsional rigidity", "setting": "[5]; VAC 0.25 mg/kg local, no carrier, normal rats, 4 weeks, normalized to intact femur", "value": "67 ± 21 ^∗ Percent"},
      {"measurement": "Maximum Torque to Failure", "setting": "[5]; [12]", "value": "362 ± 49 ^∗,# Nmm"},
      {"measurement": "Maximum Torsional Rigidity", "setting": "[5]; [12]", "value": "45,877 ± 13,079^∗ Nmm^2/rad"},
      {"measurement": "Percent Maximum Torque to Failure", "setting": "[5]; [13]", "value": "72 ± 19 ^∗ Percent"},
      {"measurement": "Percent maximum torsional rigidity", "setting": "[5]; [13]", "value": "103 ± 23 ^∗,# Percent"},
      {"measurement": "Effective Shear Modulus", "setting": "[5]; [14]", "value": "9.6×10^2 ± 7.8×10^2 MPa"},
      {"measurement": "Maximum Torsional Rigidity", "setting": "[5]; [14]", "value": "3.4×10^4 ± 1.5×10^4* Nmm^2/rad and 3.4×10^4 ± 1.5×10^4∗ Nmm^2/rad"},
      {"measurement": "Percent maximum torsional rigidity", "setting": "[5]; VAC 1.5 mg/kg Autoclaved, no carrier, four weeks, normalized to intact femur", "value": "70 ± 31 ^∗ Percent"},
      {"measurement": "Effective Shear Modulus", "setting": "[5]; [15]", "value": "7.9×10^2 ± 2.4×10^2 MPa"},
      {"measurement": "Maximum Torsional Rigidity", "setting": "[5]; [15]", "value": "2.6×10^4 ± 3.7×10^3 Nmm^2/rad"},
      {"measurement": "Maximum Torque to Failure", "setting": "[5]; [16]", "value": "471 ± 91", "unit": "Nmm"},
      {"measurement": "Maximum Torsional Rigidity", "setting": "[5]; [16]", "value": "34,522 ± 8,347^* Nmm^2/rad"},
      {"measurement": "Effective Shear Modulus", "setting": "[5]; [17]", "value": "1.3×10^3 ± 1.3×10^3 MPa"},
      {"measurement": "Effective Shear Stress", "setting": "[5]; [17]", "value": "43± 17", "unit": "MPa"},
      {"measurement": "Maximum Torsional Rigidity", "setting": "[5]; [17]", "value": "3.0×10^4 ± 1.8×10^4 Nmm^2/rad"},
      {"measurement": "Mean Angle at Failure", "setting": "[5]; [17]", "value": "12± 4", "unit": "degrees"},
      {"measurement": "Percent Maximum Torque to Failure", "setting": "[5]; VAC 1.5 mg/kg local, rats of advanced age (190-195 days), four weeks, normalized to intact femur", "value": "44 ± 10^∗ Percent"},
      {"measurement": "Effective Shear Modulus", "setting": "[5]; [18]", "value": "2.5×10^3 ± 2.4×10^3 MPa"},
      {"measurement": "Effective Shear Stress", "setting": "[5]; [18]", "value": "69 ± 59", "unit": "MPa"},
      {"measurement": "Maximum Torque to Failure", "setting": "[5]; [18]", "value": "329 ± 117 ^∗ Nmm"},
      {"measurement": "Maximum Torsional Rigidity", "setting": "[5]; [18]", "value": "3.5×10^4 ± 1.7×10^4* Nmm^2/rad and 3.5×10^4 ± 1.7×10^4∗ Nmm^2/rad"},
      {"measurement": "Percent Effective Shear Modulus", "setting": "[5]; [19]", "value": "23 ± 12 ^∗ Percent"},
      {"measurement": "Percent maximum torsional rigidity", "setting": "[5]; [19]", "value": "76 ± 28 ^∗ Percent"},
      {"measurement": "Effective Shear Modulus", "setting": "[5]; [20]", "value": "2,948 ± 1,218 ^∗ MPa"},
      {"measurement": "Effective Shear Stress", "setting": "[5]; [20]", "value": "101 ± 18 ^∗,#,& MPa"},
      {"measurement": "Maximum Torque to Failure", "setting": "[5]; [20]", "value": "409 ± 43 ^∗,# Nmm"},
      {"measurement": "Maximum Torsional Rigidity", "setting": "[5]; [20]", "value": "41,007 ± 11,236 ^∗ Nmm^2/rad"},
      {"measurement": "Percent Effective Shear Modulus", "setting": "[5]; [21]", "value": "20 ± 11 ^∗ Percent"},
      {"measurement": "Percent Effective Shear Stress", "setting": "[5]; [21]", "value": "30 ± 12 ^∗,# Percent"},
      {"measurement": "Percent Maximum Torque to Failure", "setting": "[5]; [21]", "value": "79 ± 12 ^∗ Percent"},
      {"measurement": "Percent maximum torsional rigidity", "setting": "[5]; [21]", "value": "78 ± 10 ^∗ Percent"},
      {"measurement": "Maximum Torsional Rigidity", "setting": "[5]; VAC 3.0 mg/kg local, no carrier, normal rats, 5 weeks", "value": "37,496 ± 12,846^∗ Nmm^2/rad"},
      {"measurement": "increase in mechanical parameter of torsion", "setting": "[5]; VAC therapeutic dosage range 0.5 to 3.0 mg/Kg", "value": "two to three-fold"}
    ]}
  ]
}
